{"source": "paper PMC6315541", "about": "“Nile Tilapia Derived Antimicrobial Peptide TP4 Exerts Antineoplastic Activity Through Microtubule Disruption” (Marine Drugs, 2018)", "key": {"α-Tubulin": {"tested_on": "α-Tubulin", "experiment": "Co-immunoprecipitation (TP4 antibody pull-down), LC-MS/MS and immunoblot", "assay_type": "binding, Homo sapiens", "conditions": "lysates of A549 cells treated with 10 μg mL^−1 TP4 for 3 h", "protocol": "To characterize the intracellular targets of TP4, cell lysates from A549 cells treated with 10 μg mL^−1 TP4 for 3 h were pulled down with the TP4 antibody, see Figure 1A. The dominant band was excised from the gel and analyzed by LC-MS/MS. Based on a MASCOT search for peptides found by MS, the potential binding target for TP4 was identified as α-Tubulin, see Figure 1C and Supplementary Dataset S1. […] Because tubulin is the major component of microtubules, we hypothesized that the cytotoxic effects of intracellular TP4 may be related to microtubule dynamics.\nFigure 1 TP4 interacts with α-Tubulin. (A) Procedure showing the pull down of TP4 interaction partners with TP4 antibody. […] (C) Protein database searching of peptides detected by MS identified α-Tubulin as a TP4 binding partner. α-Tubulin sequence is shown. […]\nCell lysates were prepared in immunoprecipitation (IP) detergent (50 mM Tris-HCl, pH 8.0, 150 mM NaCl, 1% Igepal CA-630: Sigma-Aldrich, St. Louis, MO, USA) with protease cocktail (Roche Applied Science, Mannheim, Germany). […] The mass spectrometry data were analyzed by Mascot engine (v.2.6.0) (Matrix Science Inc., Boston, MA, USA) to identify candidate interaction targets. […] Signals were detected by enhanced chemiluminescence (Immobilon Western Chemiluminescent HRP substrate, Merck Millipore, Billerica, MA, USA) on an imaging system (UVP, BioSpectrumTM 500, Upland, CA, USA). […]"}, "[1]": {"tested_on": "α-Tubulin protein level in A549 cells", "experiment": "Western blot of α-Tubulin protein level in A549 cells", "assay_type": "cell-based, human", "conditions": "TP4 vs vehicle, Figure 2B", "protocol": "To examine whether TP4 may affect microtubule dynamics, A549 cells were treated with TP4, and cytoskeletal elements were analyzed by immunocytochemistry (ICC). […] We then asked whether TP4 treatment may influence tubulin protein levels by performing Western blots on lysates from A549 cells that had been treated with vehicle or TP4. […] We next conducted a microtubule regrowth assay to further address whether TP4 may disrupt microtubule polymerization. TP4 was applied to A549 cells that had been treated with or without Nocodazole (20 μM) treatment for 6 h, which completely depolymerizes the microtubule network. The repolymerization of microtubules was then initialized by the addition of fresh recovery medium, and regrowth was analyzed by ICC.\nFigure 2 TP4 disrupts the microtubule network in cancer cells. (A) Cells were stained for α-Tubulin and F-actin. Hoechst33342 was used to stain nuclei. Arrows indicate cells with negative α-Tubulin staining. Bar: 20 μm. (B) Total lysates from cells with mock (labeled C) or TP4 treatment (labeled T) were analyzed by Western blot using antibodies against GAPDH and α-Tubulin. Quantification of the α-Tubulin signal normalized to GAPDH is shown. Mr is the molecular weight. […] Bar: 20 μm (D) Quantification of the number of cells with Tubulin-positive and Tubulin-negative staining. […]"}}}
{"sequence": "FIHHIIGGLFSAGKAIHRLIRRRRR [TP4, synthesized Nile tilapia-derived antimicrobial peptide, Tilapia piscidin 4]", "values": [{"measurement": "interaction with α-Tubulin (IP with TP4 antibody, probed with α-Tubulin antibody)", "setting": "α-Tubulin", "value": "confirming the interaction between TP4 and α-Tubulin"}, {"measurement": "level of α-Tubulin protein (normalized to GAPDH)", "setting": "[1]", "value": "not significantly affected"}]}
